Target: T1, Or22a/Orco (Drosophila melanogaster, UniProt P81909)
T1 construct: his-tag; made in house; host or cells: baculovirus-infected Sf9 cells
T1 sequence (P81909 1-397): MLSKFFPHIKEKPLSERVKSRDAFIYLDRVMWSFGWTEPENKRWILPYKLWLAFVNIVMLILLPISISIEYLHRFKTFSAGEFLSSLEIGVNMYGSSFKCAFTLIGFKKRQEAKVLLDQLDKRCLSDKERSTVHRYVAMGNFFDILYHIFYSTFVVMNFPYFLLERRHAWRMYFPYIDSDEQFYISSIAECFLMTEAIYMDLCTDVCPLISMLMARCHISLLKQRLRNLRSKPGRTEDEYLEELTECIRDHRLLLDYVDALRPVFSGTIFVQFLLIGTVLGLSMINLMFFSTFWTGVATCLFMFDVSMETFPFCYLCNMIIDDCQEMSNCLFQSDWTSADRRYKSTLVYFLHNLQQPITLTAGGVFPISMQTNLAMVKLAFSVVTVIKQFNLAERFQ
T1 sequence (Q9VNB5 1-486 partner): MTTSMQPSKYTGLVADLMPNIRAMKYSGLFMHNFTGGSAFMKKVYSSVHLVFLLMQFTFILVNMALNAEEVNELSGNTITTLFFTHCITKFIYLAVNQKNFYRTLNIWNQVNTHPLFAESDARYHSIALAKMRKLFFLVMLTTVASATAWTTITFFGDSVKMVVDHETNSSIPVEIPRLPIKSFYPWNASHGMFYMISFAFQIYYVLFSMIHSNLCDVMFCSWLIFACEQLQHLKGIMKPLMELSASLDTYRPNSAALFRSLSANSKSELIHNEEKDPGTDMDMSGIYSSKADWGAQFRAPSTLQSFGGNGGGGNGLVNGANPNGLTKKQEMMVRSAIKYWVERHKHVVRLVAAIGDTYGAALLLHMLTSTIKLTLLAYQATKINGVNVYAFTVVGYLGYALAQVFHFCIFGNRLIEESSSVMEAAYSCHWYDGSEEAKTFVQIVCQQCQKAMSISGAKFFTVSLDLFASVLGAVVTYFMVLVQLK
Experiment: GFET sensor, Or22a/Orco liposomes
Assay type: biochemical
Conditions: Table 4, GFET
Excerpt: The GFETs used in this study were fabricated from a predeposited graphene film on 300 nm SiO2 coated Si substrate from ACS Suppliers, USA. The FETs consist of a channel with dimensions of 100 μm width and […]. The key steps involved in fabricating the GFET on a Si/SiO2 substrate is schematically illustrated in FIG. 12. The source and drain electrodes were defined by photolithography and formed by successive deposition of Cr and Au. Both the drain and source electrodes were then encapsulated using AZ1518 photoresist and a channel with dimensions of 100 μm width and 10 μm length was left open to the environment for gating and functionalisation.
The OR liposomes were functionalised onto the graphene surface via a non-covalent route using PBASE as the molecular linker as shown in FIG. 13. The OR liposomes were diluted at 1:10 ratio with 1×PBS (pH7.4). The cleaned GFETs were immersed in 1 mM PBASE solution in methanol for 1 hour. […]
Electrical sensor measurements of OR liposome functionalised GFETs were carried out using top liquid gate morphology as shown in the schematic in FIG. 15 (a). […] The transfer characteristics of the different graphene FETs (FIG. 15 (b) to (g)) were measured at Vds=1 mV while the liquid gate voltage Vlg was swept from −0.5 V to 1 V with an interval of 20 mV. […]

CCCCCC(=O)OC [methyl hexanoate]
Detection Range: 10^−13-10^−8 M | EC50: 3.91 pM

Reference: patent US20210255184A1, “Biosensor Device and Methods” (The New Zealand Institute for Plant and Food Research …, priority 2018, published 2021)
